Source: US20250339569A1, “CARBONIC ANHYDRASE IX LIGANDS” (priority 2021, published 2025)
Starred links: 1 amine or outer side, 2 acyl side, 3 side chain; linkers in the order of their positions; H or OH if unused. Positions of bridges follow the written chain, without caps; N, C: chain ends. Non-standard residues stand in square brackets, D forms with d. Residues, ends and D or L forms follow the SMILES beside them. *: point of attachment. X23 = NS(=O)(=O)c1cccc(C(=O)Nc2cccc(C[C@H](N[*:1])C(=O)[*:2])c2)c1; X24 = NS(=O)(=O)c1ccc(C(=O)Nc2cccc(C[C@H](N[*:1])C(=O)[*:2])c2)cc1; X10 = NS(=O)(=O)c1cc(C(=O)Nc2cccc(C[C@H](N[*:1])C(=O)[*:2])c2)cs1; X11 = NS(=O)(=O)c1ccc(C(=O)Nc2cccc(C[C@H](N[*:1])C(=O)[*:2])c2)s1; X21 = NS(=O)(=O)CCC(=O)Nc1cccc(C[C@H](N[*:1])C(=O)[*:2])c1; DOTA = O=C(O)CN1CCN(CC(=O)O)CCN(CC(=O)*)CCN(CC(=O)O)CC1; Phe(3-CF3) = N[C@@H](Cc1cccc(C(F)(F)F)c1)C(=O)O; X7 = O=C([C@H](Cc1cccc(N[*:3])c1)N[*:1])[*:2]; Phe(4-NH2) = Nc1ccc(C[C@H](N)C(=O)O)cc1; mXylylene = c1cc(C[*:1])cc(C[*:2])c1; X36 = NS(=O)(=O)Cc1ccc(C(=O)*)cc1; X2 = O=C(CN1CCC(N[*:1])CC1)[*:2]; X26 = NS(=O)(=O)c1cccc(C(=O)*)c1; X17 = NS(=O)(=O)c1cc(C(=O)*)cs1; X27 = NS(=O)(=O)c1ccc(C(=O)*)s1; X39 = NS(=O)(=O)c1ccc(N*)cc1; X41 = NS(=O)(=O)c1cccc(N*)c1; Dap = NC[C@H](N)C(=O)O

Experiments:
[1] = target: T1, human carbonic anhydrase IX (hCAIX-Fc) (Homo sapiens, UniProt Q16790); assay: Surface plasmon resonance assay with hCAIX-Fc; format: binding; conditions: 25° C.; for t1/2 category (activity): SPR dissociation half-life, hCAIX-Fc; for Kd: SPR, hCAIX-Fc captured, read-out: pKD category (activity) (converted)
T1 construct: purchased SinoBliological (Sino Biological) 10107-H02H

[2] = target: T2, CAIX-expressing human HT-29 colorectal cancer cells (Homo sapiens, UniProt Q16790); assay: FACS binding assay (IC50 determination, competition with tracer 3BP-2776 or 3BP-4149); conditions: FACS binding assay, HT-29 cells, competition with tracer 3BP-4149 (3 nM, Cy5-labeled), 4° C., 1 hour; read-out: pIC50 category (activity) (converted)
T2 construct: CAIX-expressing human HT-29 colorectal cancer cells; host or cells: HT-29 human colorectal cancer cells
Summary of the method: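 HT-29 cells in FACS buffer (PBS, 1% FCS) at 500.000 cells/ml were exposed to compounds competing with a labelled tracer, with biotinylated compounds detected by 1 μg/mL APC-streptavidin for 30 min on ice. APC/Cy5 median fluorescence was read by flow cytometry and IC50 derived by 4PL fit.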

| Structure (SMILES) | t1/2 category (activity) [1] | Kd [1] [µM] | IC50 [2] [µM] |
| --- | --- | --- | --- |
| CC(C)C[C@@H]1NC(=O)[C@H](Cc2ccc(NC(=O)c3csc(S(N)(=O)=O)c3)cc2)NC(=O)[C@H](CC(=O)O)NC(=O)[C@H]2CCCN2C(=O)[C@H](CCC(=O)O)NC(=O)[C@@H](NC(=O)[C@H](Cc2ccc(O)cc2)NC(=O)[C@@H](NC(=O)CN2CCC(NC(=O)CN3CCN(CC(=O)O)CCN(CC(=O)O)CCN(CC(=O)O)CC3)CC2)C(C)C)CSCc2cccc(c2)CSC[C@@H](C(N)=O)NC(=O)[C@H](CO)NC(=O)[C@H](Cc2c[nH]c3ccccc23)NC(=O)[C@H]([C@@H](C)O)NC1=O [3BP-4401] ({DOTA}-[X2]VYCE[dP]D[Phe(4-NH2)](X17)LTWSC-NH2; linker 4-13 via mXylylene) | A (t1/2>15.0 minutes) | < 0.01 | < 0.01 |
| CC(C)C[C@@H]1NC(=O)[C@H](Cc2cccc(NC(=O)c3ccc(S(N)(=O)=O)cc3)c2)NC(=O)[C@H](CC(=O)O)NC(=O)[C@H]2CCCN2C(=O)[C@H](CCC(=O)O)NC(=O)[C@@H](NC(=O)[C@H](Cc2ccc(O)cc2)NC(=O)[C@@H](NC(=O)CN2CCC(NC(=O)CN3CCN(CC(=O)O)CCN(CC(=O)O)CCN(CC(=O)O)CC3)CC2)C(C)C)CSCc2cccc(c2)CSC[C@@H](C(N)=O)NC(=O)[C@H](CO)NC(=O)[C@H](Cc2c[nH]c3ccccc23)NC(=O)[C@H]([C@@H](C)O)NC1=O [3BP-4405] ({DOTA}-[X2]VYCE[dP]D[X24]LTWSC-NH2; linker 4-13 via mXylylene) | A (t1/2>15.0 minutes) | < 0.01 | < 0.01 |
| CC(C)C[C@@H]1NC(=O)[C@H](Cc2cccc(NC(=O)c3ccc(CS(N)(=O)=O)cc3)c2)NC(=O)[C@H](CC(=O)O)NC(=O)[C@H]2CCCN2C(=O)[C@H](CCC(=O)O)NC(=O)[C@@H](NC(=O)[C@H](Cc2ccc(O)cc2)NC(=O)[C@@H](NC(=O)CN2CCC(NC(=O)CN3CCN(CC(=O)O)CCN(CC(=O)O)CCN(CC(=O)O)CC3)CC2)C(C)C)CSCc2cccc(c2)CSC[C@@H](C(N)=O)NC(=O)[C@H](CO)NC(=O)[C@H](Cc2c[nH]c3ccccc23)NC(=O)[C@H]([C@@H](C)O)NC1=O [3BP-4406] ({DOTA}-[X2]VYCE[dP]D[X7](X36)LTWSC-NH2; linker 4-13 via mXylylene) | A (t1/2>15.0 minutes) | < 0.01 | < 0.01 |
| CC(C)C[C@@H]1NC(=O)[C@H](Cc2cccc(NC(=O)CCS(N)(=O)=O)c2)NC(=O)[C@H](CC(=O)O)NC(=O)[C@H]2CCCN2C(=O)[C@H](CCC(=O)O)NC(=O)[C@@H](NC(=O)[C@H](Cc2ccc(O)cc2)NC(=O)[C@@H](NC(=O)CN2CCC(NC(=O)CN3CCN(CC(=O)O)CCN(CC(=O)O)CCN(CC(=O)O)CC3)CC2)C(C)C)CSCc2cccc(c2)CSC[C@@H](C(N)=O)NC(=O)[C@H](CO)NC(=O)[C@H](Cc2c[nH]c3ccccc23)NC(=O)[C@H]([C@@H](C)O)NC1=O [3BP-4407] ({DOTA}-[X2]VYCE[dP]D[X21]LTWSC-NH2; linker 4-13 via mXylylene) | A (t1/2>15.0 minutes) | < 0.01 | < 0.01 |
| CC(C)C[C@@H]1NC(=O)[C@H](Cc2ccc(NC(=O)c3cccc(S(N)(=O)=O)c3)cc2)NC(=O)[C@H](CC(=O)O)NC(=O)[C@H]2CCCN2C(=O)[C@H](CCC(=O)O)NC(=O)[C@@H](NC(=O)[C@H](Cc2ccc(O)cc2)NC(=O)[C@@H](NC(=O)CN2CCC(NC(=O)CN3CCN(CC(=O)O)CCN(CC(=O)O)CCN(CC(=O)O)CC3)CC2)C(C)C)CSCc2cccc(c2)CSC[C@@H](C(N)=O)NC(=O)[C@H](CO)NC(=O)[C@H](Cc2c[nH]c3ccccc23)NC(=O)[C@H]([C@@H](C)O)NC1=O [3BP-4408] ({DOTA}-[X2]VYCE[dP]D[Phe(4-NH2)](X26)LTWSC-NH2; linker 4-13 via mXylylene) | A (t1/2>15.0 minutes) | < 0.01 | < 0.01 |
| CC(C)C[C@@H]1NC(=O)[C@H](Cc2cccc(NC(=O)c3csc(S(N)(=O)=O)c3)c2)NC(=O)[C@H](CC(=O)O)NC(=O)[C@H]2CCCN2C(=O)[C@H](CCC(=O)O)NC(=O)[C@@H](NC(=O)[C@H](Cc2ccc(O)cc2)NC(=O)[C@@H](NC(=O)CN2CCC(NC(=O)CN3CCN(CC(=O)O)CCN(CC(=O)O)CCN(CC(=O)O)CC3)CC2)C(C)C)CSCc2cccc(c2)CSC[C@@H](C(N)=O)NC(=O)[C@H](CO)NC(=O)[C@H](Cc2c[nH]c3ccccc23)NC(=O)[C@H]([C@@H](C)O)NC1=O [3BP-4412] ({DOTA}-[X2]VYCE[dP]D[X10]LTWSC-NH2; linker 4-13 via mXylylene) | A (t1/2>15.0 minutes) | < 0.01 | < 0.01 |

Next, values leading:

| t1/2 category (activity) [1] | Kd [1] [µM] | IC50 [2] [µM] | Structure (SMILES) |
| --- | --- | --- | --- |
| A (t1/2>15.0 minutes) | < 0.01 | < 0.01 | CC(C)C[C@@H]1NC(=O)[C@H](Cc2ccc(NC(=O)c3ccc(S(N)(=O)=O)s3)cc2)NC(=O)[C@H](CC(=O)O)NC(=O)[C@H]2CCCN2C(=O)[C@H](CCC(=O)O)NC(=O)[C@@H](NC(=O)[C@H](Cc2ccc(O)cc2)NC(=O)[C@@H](NC(=O)CN2CCC(NC(=O)CN3CCN(CC(=O)O)CCN(CC(=O)O)CCN(CC(=O)O)CC3)CC2)C(C)C)CSCc2cccc(c2)CSC[C@@H](C(N)=O)NC(=O)[C@H](CO)NC(=O)[C@H](Cc2c[nH]c3ccccc23)NC(=O)[C@H]([C@@H](C)O)NC1=O [3BP-4402] ({DOTA}-[X2]VYCE[dP]D[Phe(4-NH2)](X27)LTWSC-NH2; linker 4-13 via mXylylene) |
| A (t1/2>15.0 minutes) | < 0.01 | < 0.01 | CC(C)C[C@@H]1NC(=O)[C@H](Cc2cccc(NC(=O)c3cccc(S(N)(=O)=O)c3)c2)NC(=O)[C@H](CC(=O)O)NC(=O)[C@H]2CCCN2C(=O)[C@H](CCC(=O)O)NC(=O)[C@@H](NC(=O)[C@H](Cc2ccc(O)cc2)NC(=O)[C@@H](NC(=O)CN2CCC(NC(=O)CN3CCN(CC(=O)O)CCN(CC(=O)O)CCN(CC(=O)O)CC3)CC2)C(C)C)CSCc2cccc(c2)CSC[C@@H](C(N)=O)NC(=O)[C@H](CO)NC(=O)[C@H](Cc2c[nH]c3ccccc23)NC(=O)[C@H]([C@@H](C)O)NC1=O [3BP-4409] ({DOTA}-[X2]VYCE[dP]D[X23]LTWSC-NH2; linker 4-13 via mXylylene) |
| A (t1/2>15.0 minutes) | < 0.01 | < 0.01 | CC(C)C[C@@H]1NC(=O)[C@H](Cc2cccc(NC(=O)c3ccc(S(N)(=O)=O)s3)c2)NC(=O)[C@H](CC(=O)O)NC(=O)[C@H]2CCCN2C(=O)[C@H](CCC(=O)O)NC(=O)[C@@H](NC(=O)[C@H](Cc2ccc(O)cc2)NC(=O)[C@@H](NC(=O)CN2CCC(NC(=O)CN3CCN(CC(=O)O)CCN(CC(=O)O)CCN(CC(=O)O)CC3)CC2)C(C)C)CSCc2cccc(c2)CSC[C@@H](C(N)=O)NC(=O)[C@H](CO)NC(=O)[C@H](Cc2c[nH]c3ccccc23)NC(=O)[C@H]([C@@H](C)O)NC1=O [3BP-4413] ({DOTA}-[X2]VYCE[dP]D[X11]LTWSC-NH2; linker 4-13 via mXylylene) |
| B (t1/2 between 5.1 and 15.0 minutes) | < 0.01 | < 0.01 | CC(C)C[C@@H]1NC(=O)[C@H](Cc2cccc(C(F)(F)F)c2)NC(=O)[C@H](CC(=O)O)NC(=O)[C@H]2CCCN2C(=O)[C@H](CCC(=O)O)NC(=O)[C@@H]2CSCc3cccc(c3)CSC[C@@H](C(N)=O)NC(=O)[C@H](CNC(=O)C[C@H](NC(=O)[C@@H](NC(=O)CN3CCC(NC(=O)CN4CCN(CC(=O)O)CCN(CC(=O)O)CCN(CC(=O)O)CC4)CC3)C(C)C)C(=O)N2)NC(=O)[C@H](Cc2c[nH]c3ccccc23)NC(=O)[C@H]([C@@H](C)O)NC1=O [3BP-4440] ({DOTA}-[X2]VDCE[dP]D[Phe(3-CF3)]LTW[Dap]C-NH2; lactam 3-12; linker 4-13 via mXylylene) |
| A (t1/2>15.0 minutes) | < 0.01 | 0.01 to 0.0794 | CC(C)C[C@@H]1NC(=O)[C@H](Cc2c[nH]c3ccccc23)NC(=O)[C@H](CCC(=O)Nc2cccc(S(N)(=O)=O)c2)NC(=O)[C@H]2CCCN2C(=O)[C@H](CCC(=O)O)NC(=O)[C@@H](NC(=O)[C@H](Cc2ccc(O)cc2)NC(=O)[C@@H](NC(=O)CN2CCC(NC(=O)CN3CCN(CC(=O)O)CCN(CC(=O)O)CCN(CC(=O)O)CC3)CC2)C(C)C)CSCc2cccc(c2)CSC[C@@H](C(N)=O)NC(=O)[C@H](CO)NC(=O)[C@H](Cc2c[nH]c3ccccc23)NC(=O)[C@H]([C@@H](C)O)NC1=O [3BP-4441] ({DOTA}-[X2]VYCE[dP]E(X41)WLTWSC-NH2; linker 4-13 via mXylylene) |
| A (t1/2>15.0 minutes) | < 0.01 | 0.01 to 0.0794 | CC(C)C[C@@H]1NC(=O)[C@H](Cc2c[nH]c3ccccc23)NC(=O)[C@H](CCC(=O)Nc2ccc(S(N)(=O)=O)cc2)NC(=O)[C@H]2CCCN2C(=O)[C@H](CCC(=O)O)NC(=O)[C@@H](NC(=O)[C@H](Cc2ccc(O)cc2)NC(=O)[C@@H](NC(=O)CN2CCC(NC(=O)CN3CCN(CC(=O)O)CCN(CC(=O)O)CCN(CC(=O)O)CC3)CC2)C(C)C)CSCc2cccc(c2)CSC[C@@H](C(N)=O)NC(=O)[C@H](CO)NC(=O)[C@H](Cc2c[nH]c3ccccc23)NC(=O)[C@H]([C@@H](C)O)NC1=O [3BP-4442] ({DOTA}-[X2]VYCE[dP]E(X39)WLTWSC-NH2; linker 4-13 via mXylylene) |
